For 26 molecules, IC50 and inhibition results are on record in ChEMBL document CHEMBL3779797, “Isoindole-1,3-dione derivatives as RSK2 inhibitors: synthesis, molecular docking simulation and SAR analysis” (Medchemcomm, 2016).

Molecules are shown by their SMILES. pIC50: −log10 of the molar value.

The pIC50 is the IC50 on a negative log10 scale, so that one unit is a factor of ten. For orientation: inhibition means the drop in the measured response relative to a control, in per cent.

System in one experiment: not listed separately
The experiment in a line: Inhibition of RSK2 in rabbit skeletal muscle using KKRNRTLSVA as substrate after 10 mins in presence of [gamma32P]ATP. The arrangement: species or system Oryctolagus cuniculus.
`CN(C)CCCn1cc(C2=C(c3c[nH]c4ccccc34)C(=O)NC2=O)c2ccccc21` [GF-109203]: the pIC50 was 7.30.

Regarding `Cn1cc(C2=C(c3cn(CCCSC(=N)N)c4ccccc34)C(=O)NC2=O)c2ccccc21` [BISINDOLYLMALEIMIDE IX], the pIC50 is 8.52.

The target in the next experiment is Ribosomal protein S6 kinase alpha-2 (Homo sapiens) (UniProt Q15349). The experiment in a line: Inhibition of N-terminal His6 tagged full-length human recombinant active RSK2 at 10 uM using S6 peptide after 20 mins by fluorescence assay.
Chain of Ribosomal protein S6 kinase alpha-2 (Homo sapiens) (Q15349 whole entry): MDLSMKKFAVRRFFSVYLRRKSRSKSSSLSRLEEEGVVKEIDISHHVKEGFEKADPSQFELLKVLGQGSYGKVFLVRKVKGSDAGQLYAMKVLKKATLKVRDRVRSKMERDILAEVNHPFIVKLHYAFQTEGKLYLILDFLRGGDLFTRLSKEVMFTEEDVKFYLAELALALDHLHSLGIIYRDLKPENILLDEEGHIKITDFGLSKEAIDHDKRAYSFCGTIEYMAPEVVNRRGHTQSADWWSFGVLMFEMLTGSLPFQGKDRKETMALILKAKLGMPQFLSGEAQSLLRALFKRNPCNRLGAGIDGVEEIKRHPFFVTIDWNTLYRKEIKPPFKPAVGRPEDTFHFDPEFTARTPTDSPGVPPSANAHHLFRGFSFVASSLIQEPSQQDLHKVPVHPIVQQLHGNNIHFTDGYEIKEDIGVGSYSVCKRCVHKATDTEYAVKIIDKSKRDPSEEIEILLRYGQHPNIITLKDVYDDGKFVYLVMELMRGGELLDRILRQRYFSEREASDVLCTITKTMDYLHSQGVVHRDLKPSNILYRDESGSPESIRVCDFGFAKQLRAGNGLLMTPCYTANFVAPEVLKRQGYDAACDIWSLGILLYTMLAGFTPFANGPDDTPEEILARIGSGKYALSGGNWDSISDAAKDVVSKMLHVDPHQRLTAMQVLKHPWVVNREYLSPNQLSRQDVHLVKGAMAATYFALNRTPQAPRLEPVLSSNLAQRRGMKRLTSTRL
As to `Cc1ccc(NCN2C(=O)c3ccccc3C2=O)cc1`, the inhibition amounted to 54%.

For `CCOc1ccc(NCN2C(=O)c3ccccc3C2=O)cc1`, the inhibition is 100%.

Consider `O=C1c2ccccc2C(=O)N1CNc1ccc(O)cc1`, for which the inhibition is 101%.

`O=C1c2ccccc2C(=O)N1CNc1ccc(N2CCOCC2)cc1`: the inhibition was determined as 101%.

On to `Cc1ccc(NCN2C(=O)c3ccc([N+](=O)[O-])cc3C2=O)cc1`, for which the inhibition is 35.7%.

With `CCOc1ccc(NCN2C(=O)c3ccc([N+](=O)[O-])cc3C2=O)cc1`, the inhibition worked out at 87%.

For `CCOc1ccc(NCN2C(=O)c3cccc(NC(=O)c4ccccc4)c3C2=O)cc1`, the inhibition was 105%.

On to `O=C1c2ccccc2C(=O)N1CNc1ccccc1`, for which the inhibition is 43.6%.

On to `O=C1c2ccccc2C(=O)N1CNc1ccc(Cl)cc1`, for which the inhibition was 8.52%.

In the case of `CC(C)c1ccc(NCN2C(=O)c3ccccc3C2=O)cc1`, the inhibition was 46.5%.

For the molecule `COc1ccc(NCN2C(=O)c3ccc(NC(=O)Nc4ccccc4)cc3C2=O)cc1`, the inhibition was determined as 34.8%.

As for `CCOc1ccc(NCN2C(=O)c3ccc(NC(=O)c4ccccc4)cc3C2=O)cc1`, the inhibition is 69.5%.

As to `COc1ccc(NCN2C(=O)c3ccc(N)cc3C2=O)cc1`, the inhibition is 109%.

Regarding `COc1ccc(NCN2C(=O)c3cccc(N)c3C2=O)cc1`, the inhibition is 95.6%.

As for `COc1ccc(N(C)CN2C(=O)c3ccccc3C2=O)cc1`, the inhibition turned out to be 87%.

Take `COc1ccc(N(CN2C(=O)c3ccccc3C2=O)C(C)=O)cc1`: the inhibition turned out to be 17.2%.

As to `CCc1ccc(NCN2C(=O)c3ccccc3C2=O)cc1`, the inhibition was determined as 63%.

Take `Cn1cc(C2=C(c3cn(CCCSC(=N)N)c4ccccc34)C(=O)NC2=O)c2ccccc21` [BISINDOLYLMALEIMIDE IX]: the inhibition was 98.2%.

Take `COc1ccc(NCN2C(=O)c3ccc(NC(=O)c4ccccc4)cc3C2=O)cc1`: the inhibition was 82%.

Consider `COc1ccc(NCN2C(=O)c3ccccc3C2=O)cc1`, for which the inhibition was 97.2%.

As for `CCN(CC)c1ccc(NCN2C(=O)c3ccccc3C2=O)c(C)c1`, the inhibition is 81%.

Regarding `COc1ccc(NCN2C(=O)c3cccc(NC(=O)c4ccccc4)c3C2=O)cc1`, the inhibition is 99.5%.

As for `O=C(Nc1ccc2c(c1)C(=O)N(CNc1ccc(N3CCOCC3)cc1)C2=O)c1ccccc1`, the inhibition amounted to 103%.

As for `O=C1c2ccccc2C(=O)N1CNc1ccc(OC(F)(F)F)cc1`, the inhibition worked out at 28.1%.

Regarding `O=C1c2ccccc2C(=O)N1CNc1ccc(F)cc1`, the inhibition came to 56.7%.
